Key:
Assay type in all cases: in vivo
[1] = tested on: giant foxtail (Setaria faberii); test: Test A preemergence, visual injury rating; conditions: Setaria faberi, pre-emergence, 240 h, 0 to 100 scale (0 no effect, 100 complete control), read-out: Foxtail, Giant plant response rating
Procedure, shortened: (§1)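 Greenhouse pot test, loam/sand soil. Formulation: non-phytotoxic solvent mix plus surfactant. Pre: directed spray onto soil after sowing. Post: plants at 1–2 leaf, 2–10 cm. Rated visually vs untreated controls at ~10 d, 0 (no effect) to 100 (complete control).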

[2] = tested on: pigweed (Amaranthus retroflexus); test: Test A preemergence, visual injury rating; conditions: Amaranthus retroflexus, pre-emergence, 240 h, 0 to 100 scale (0 no effect, 100 complete control), read-out: Pigweed plant response rating
Procedure, shortened: as §1

kochia (Kochia scoparia) [3] = test: Test A preemergence, visual injury rating; conditions: Bassia scoparia, pre-emergence, 240 h, 0 to 100 scale (0 no effect, 100 complete control), read-out: Kochia plant response rating
Procedure, shortened: as §1

[4] = tested on: ragweed (common ragweed, Ambrosia elatior); test: Test A preemergence, visual injury rating; conditions: Ambrosia artemisiifolia, pre-emergence, 240 h, 0 to 100 scale (0 no effect, 100 complete control), read-out: Ragweed plant response rating
Procedure, shortened: as §1

[5] = tested on: barnyardgrass (Echinochloa crus-galli); test: Test A preemergence, visual injury rating; conditions: Echinochloa crus-galli, pre-emergence, 240 h, 0 to 100 scale (0 no effect, 100 complete control), read-out: Barnyardgrass plant response rating
Procedure, shortened: as §1

[6] = tested on: Italian ryegrass (Lolium multiflorum); test: Test A preemergence, visual injury rating; conditions: Lolium multiflorum, pre-emergence, 240 h, 0 to 100 scale (0 no effect, 100 complete control), read-out: Ryegrass, Italian plant response rating
Procedure, shortened: as §1

[7] = tested on: galium (catchweed bedstraw, Galium aparine); test: Test C postemergence, plant response rating; conditions: Galium, post-emergence
Procedure, shortened: (§2)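 Both timings shared one formulation, a non-phytotoxic solvent mixture with surfactant, and a greenhouse period of 13 to 15 d. Preemergence used seeded loam/sand or silt loam soil, postemergence used 2 to 18 cm plants; visual ratings ran from 0 (no effect) to 100 (complete control).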

[8] = tested on: crabgrass, large (large crabgrass, Digitaria sanguinalis); test: Test C postemergence, plant response rating; conditions: Digitaria sanguinalis, post-emergence
Procedure, shortened: as §2

[9] = tested on: blackgrass (Alopecurus myosuroides); test: Test C postemergence, plant response rating; conditions: Alopecurus myosuroides, post-emergence
Procedure, shortened: as §2

[10] = tested on: nutsedge, yellow (yellow nutsedge, Cyperus esculentus); test: Test C postemergence, plant response rating; conditions: Cyperus, post-emergence
Procedure, shortened: as §2

kochia (Kochia scoparia) [11] = test: Test C postemergence, plant response rating; conditions: Bassia scoparia, post-emergence
Procedure, shortened: as §2

[12] = tested on: morningglory (Ipomoea coccinea); test: Test C postemergence, plant response rating; conditions: Ipomoea, post-emergence
Procedure, shortened: as §2

[13] = tested on: barnyardgrass (Echinochloa crus-galli); test: Test C postemergence, plant response rating; conditions: Echinochloa crus-galli, post-emergence
Procedure, shortened: as §2

[14] = tested on: oilseed rape (Brassica napus); test: Test C postemergence, plant response rating; conditions: Brassica napus, post-emergence
Procedure, shortened: as §2

[15] = tested on: wheat (winter wheat, Triticum aestivum); test: Test C postemergence, plant response rating; conditions: Triticum aestivum, post-emergence
Procedure, shortened: as §2

corn (Zea mays) = test: Test C postemergence, plant response rating; conditions: Zea mays, post-emergence
Procedure, shortened: as §2

[16] = tested on: barnyardgrass (Echinochloa crus-galli); test: Test B flooded paddy test, plant response rating; conditions: Echinochloa crus-galli, 312 h; 250 g ai/ha; Flood; scale of 0 to 100 where 0 is no effect and 100 is complete control; 13 to 15 days
Procedure, shortened: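 In-water treatment: compound dosed into 3 cm flood over soil, water level unchanged throughout. Controls run alongside; visual assessment at day 13–15.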

[17] = 62 g ai/ha, scale 0 to 100 (0 no effect, 100 complete control)
[18] = 125 g ai/ha, scale 0 to 100 (0 no effect, 100 complete control)

## O=C(OCC(F)(F)C(F)(F)F)c1c(Br)cccc1Oc1ncc(Cl)cn1 [Compound 23, 2,2,3,3,3-pentafluoropropyl 2-bromo-6-[(5-chloro-2-pyrimidinyl)oxy]benzoate]
[1]; 125 g ai/ha
  pest or weed control at 125 g/ha: 70%
[1]; 500 g ai/ha
  pest or weed control at 500 g/ha: 100%
[2]; 125 g ai/ha
  pest or weed control at 125 g/ha: 100%
[2]; 500 g ai/ha
  pest or weed control at 500 g/ha: 100%
Kochia (Kochia scoparia) [3]; 125 g ai/ha
  pest or weed control at 125 g/ha: 0%
Kochia (Kochia scoparia) [3]; 500 g ai/ha
  pest or weed control at 500 g/ha: 50%
[4]; 125 g ai/ha
  pest or weed control at 125 g/ha: 0%
[4]; 500 g ai/ha
  pest or weed control at 500 g/ha: 10%
[5]; 125 g ai/ha
  pest or weed control at 125 g/ha: 20%
[5]; 500 g ai/ha
  pest or weed control at 500 g/ha: 70%
[6]; 125 g ai/ha
  pest or weed control at 125 g/ha: 0%
[6]; 500 g ai/ha
  pest or weed control at 500 g/ha: 40%
[7]; 16 g ai/ha, scale 0 to 100
  pest or weed control at 16 g/ha: 50%
[7]; 31 g ai/ha, scale 0 to 100
  pest or weed control at 31 g/ha: 55%
[7]; [17]
  pest or weed control at 62 g/ha: 55%
[7]; [18]
  pest or weed control at 125 g/ha: 80%
[8]; 16 g ai/ha, scale 0 to 100
  pest or weed control at 16 g/ha: 10%
[8]; 31 g ai/ha, scale 0 to 100
  pest or weed control at 31 g/ha: 10%
[8]; [17]
  pest or weed control at 62 g/ha: 20%
[8]; [18]
  pest or weed control at 125 g/ha: 25%
[9]; 16 g ai/ha, scale 0 to 100
  pest or weed control at 16 g/ha: 0%
[9]; 31 g ai/ha, scale 0 to 100
  pest or weed control at 31 g/ha: 5%
[9]; [17]
  pest or weed control at 62 g/ha: 15%
[9]; [18]
  pest or weed control at 125 g/ha: 20%
[10]; 16 g ai/ha, scale 0 to 100
  pest or weed control at 16 g/ha: 0%
[10]; 31 g ai/ha, scale 0 to 100
  pest or weed control at 31 g/ha: 0%
[10]; [17]
  pest or weed control at 62 g/ha: 5%
[10]; [18]
  pest or weed control at 125 g/ha: 10%
Kochia (Kochia scoparia) [11]; 16 g ai/ha, scale 0 to 100
  pest or weed control at 16 g/ha: 5%
Kochia (Kochia scoparia) [11]; 31 g ai/ha, scale 0 to 100
  pest or weed control at 31 g/ha: 50%
Kochia (Kochia scoparia) [11]; [17]
  pest or weed control at 62 g/ha: 55%
Kochia (Kochia scoparia) [11]; [18]
  pest or weed control at 125 g/ha: 85%
[12]; 16 g ai/ha, scale 0 to 100
  pest or weed control at 16 g/ha: 10%
[12]; 31 g ai/ha, scale 0 to 100
  pest or weed control at 31 g/ha: 55%
[12]; [17]
  pest or weed control at 62 g/ha: 60%
[12]; [18]
  pest or weed control at 125 g/ha: 35%
[13]; 16 g ai/ha, scale 0 to 100
  pest or weed control at 16 g/ha: 10%
[13]; 31 g ai/ha, scale 0 to 100
  pest or weed control at 31 g/ha: 10%
[13]; [17]
  pest or weed control at 62 g/ha: 10%
[13]; [18]
  pest or weed control at 125 g/ha: 20%
[14]; 16 g ai/ha, scale 0 to 100
  plant injury at 16 g/ha: 5%
[14]; 31 g ai/ha, scale 0 to 100
  plant injury at 31 g/ha: 5%
[14]; [17]
  plant injury at 62 g/ha: 50%
[14]; [18]
  plant injury at 125 g/ha: 35%
[15]; 16 g ai/ha, scale 0 to 100
  plant injury at 16 g/ha: 0%
[15]; 31 g ai/ha, scale 0 to 100
  plant injury at 31 g/ha: 0%
[15]; 62 g ai/ha, scale 0 to 100 (0 no effect, 100 complete control), read-out: Wheat plant response rating
  plant injury at 62 g/ha: 0%
[15]; [18]
  plant injury at 125 g/ha: 0%
Corn (Zea mays); 16 g ai/ha, scale 0 to 100
  Corn plant response rating (crop injury, 0 = no effect, 100 = complete kill) at 16 g/ha: 5%
Corn (Zea mays); 31 g ai/ha, scale 0 to 100
  Corn plant response rating (crop injury, 0 = no effect, 100 = complete kill) at 31 g/ha: 5%
Corn (Zea mays); [17]
  plant injury at 62 g/ha: 5%
Corn (Zea mays); [18]
  plant injury at 125 g/ha: 10%
[16]
  pest or weed control at 250 g/ha: 0%

From patent publication US11053204B2, “Pyrimidinyloxy benzene derivatives as herbicides” (FMC Corporation, priority 2015, dated 2021)
